Laboratory results from patent US4081441A, “Antibacterial agents” (priority 1977, dated 1978).
Read-outs that look alike come from different tables or passages of the source.

What was measured:
Pseudomonas aeruginosa [1] = assay: Minimum Inhibitory Concentration, agar dilution, overnight incubation at 37° C.; format: cell-based; conditions: for MIC: Pseudomonas aeruginosa
Source text: A carbenicillin sample was also run for comparative purposes.

Pseudomonas aeruginosa [2] = assay: Minimum Bactericidal Concentration, inoculum 10^4 cells/ml., at least 99% kill; format: cell-based
Method: The bactericidal in vitro activity of sodium D(-)-6-(α-(1,2,4-triazine-3,5-dione-6-carboxamido)-4-hydroxyphenylacetamido)penicillanate (BL-P1908) against several strains of Pseudomonas aeruginosa was determined under two sets of conditions. In one test the Minimum Bactericidal Concentrations (M.B.C.) were determined using an inoculum size of 10^4 cells/ml. and the M.B.C. was defined as the lowest concentration of antibiotic in mcg./ml. needed to kill at least 99% of the viable Pseudomonas cells.

Pseudomonas aeruginosa [3] = assay: Minimum Bactericidal Concentration, inoculum 10^5 cells/ml., at least 99.9% kill; format: cell-based
Source text: The effect of increased inoculum size on the bactericidal activity of BL-P1908 was investigated by a second test in which an inoculum size of 10^5 cells/ml. was used and the M.B.C. was defined as the lowest concentration of antibiotics in mcg./ml. needed to kill at least 99.9% of viable Pseudomonas cells.

[4] = Mouse blood (plasma) antibiotic levels after single intramuscular dose; format: in vivo; conditions: im, 40 mg/kg, mice, 40 mg./kg. i.m., Test 1 (Ave. of 6 mice tested), read-out: Blood Level
Method: Plasma antibiotic levels from mice administered a single intramuscular dose of 40 mg./kg. of BL-[…] or carbenicillin are shown in the following table.

Bacteroides fragilis = assay: M.I.C. against anaerobic bacteria, Bacteroides fragilis; format: cell-based
Cl. acidiurici = assay: M.I.C. against anaerobic bacteria, Cl. acidiurici; format: cell-based; conditions: strain A9560
Cl. cylindrosporum = assay: M.I.C. against anaerobic bacteria, Cl. cylindrosporum; format: cell-based; conditions: strain A9562
Cl. difficile = assay: M.I.C. against anaerobic bacteria, Cl. difficile; format: cell-based; conditions: Clostridioides difficile
Cl. septicum = assay: M.I.C. against anaerobic bacteria, Cl. septicum; format: cell-based; conditions: Clostridium septicum; strain A21869
Cl. perfringens = assay: microbe, parasite or virus in culture; format: cell-based; conditions: Clostridium perfringens
Cl. ramosum = assay: M.I.C. against anaerobic bacteria, Cl. ramosum; format: cell-based; conditions: Thomasclavelia ramosa
[5] = mice, 40 mg./kg. i.m., Literature values, cited from earlier work
Pseudomonas aeruginosa [6] = assay: animal or person; conditions: in Mus musculus, im

CC1(C)S[C@@H]2[C@H](NC(=O)C(C(=O)O)c3ccccc3)C(=O)N2[C@H]1C(=O)O (some centres unmarked) [Carbenicillin, reference compound]
4000 ng/mL: concentration at 1 h ([4]; 60 min.)
32 µg/mL: M.I.C. (Pseudomonas aeruginosa [1]) | MIC (Pseudomonas aeruginosa [1]; strain A9827) | MIC (Pseudomonas aeruginosa [1]; strain A9910) | MIC (Pseudomonas aeruginosa [1]; strain A9925) | MIC (Pseudomonas aeruginosa [1]; strain A15150) | MIC (Pseudomonas aeruginosa [1]; strain A15151) | MIC (Pseudomonas aeruginosa [1]; strain A20574) | MBC (Pseudomonas aeruginosa [2]; strain 9910) | MIC (Bacteroides fragilis; strain A20933) | MIC (Bacteroides fragilis; strain A20934) | MIC (Bacteroides fragilis; strain A20935) | MIC (Bacteroides fragilis; strain A21871) | MIC (Cl. difficile; strain A21675) | MIC (Cl. difficile; strain A21972) | MIC (Cl. ramosum; strain A21883) | MIC (Cl. ramosum; strain A21970)
19100 ng/mL: concentration at 0.25 h ([4]; 15 min.)
100 mg/kg: ED50 (Pseudomonas aeruginosa [6]; read-out: PD50 /treatment, P. aeruginosa A9843A, challenge 1 × 10^4, i.m., typical figures based on several tests) | ED50 (Pseudomonas aeruginosa [6]; read-out: PD50 /treatment, P. aeruginosa A9843A, challenge 2 × 10^4, i.m., typical figures based on several tests) | ED50 (Pseudomonas aeruginosa [6]; read-out: PD50 /treatment, P. aeruginosa A20599, challenge 3 × 10^4, i.m., at 0 and 2 hours)
0.5 µg/mL: MIC (Cl. acidiurici) | MIC (Cl. cylindrosporum) | MIC (Cl. perfringens; strain A21873) | MIC (Cl. perfringens; strain A21874)
< 4600 ng/mL: Blood Level ([5]; 60 min.) | Blood Level ([5]; 90 min.)
4 µg/mL: MIC (Bacteroides fragilis; strain A21870) | MIC (Cl. perfringens; strain A21907)
12500 ng/mL: concentration at 0.5 h ([4]; 30 min.)
250 µg/mL: MBC (Pseudomonas aeruginosa [2]; strain 20557) | MBC (Pseudomonas aeruginosa [2]; strain 20717) | MBC (Pseudomonas aeruginosa [3]; strain 20546) | MBC (Pseudomonas aeruginosa [3]; strain 20557) | MBC (Pseudomonas aeruginosa [3]; strain 20602) | MBC (Pseudomonas aeruginosa [3]; strain 20616) | MBC (Pseudomonas aeruginosa [3]; strain 20726)
16 µg/mL: MIC (Pseudomonas aeruginosa [1]; strain A20126) | MIC (Bacteroides fragilis; strain A20926) | MIC (Bacteroides fragilis; strain A21875)
125 µg/mL: MBC (Pseudomonas aeruginosa [2]; strain 20616) | MBC (Pseudomonas aeruginosa [2]; strain 20641) | MBC (Pseudomonas aeruginosa [2]; strain 20726) | MBC (Pseudomonas aeruginosa [3]; strain 9843A) | MBC (Pseudomonas aeruginosa [3]; strain 9910) | MBC (Pseudomonas aeruginosa [3]; strain 9926) | MBC (Pseudomonas aeruginosa [3]; strain 20128) | MBC (Pseudomonas aeruginosa [3]; strain 20227) | MBC (Pseudomonas aeruginosa [3]; strain 20574) | MBC (Pseudomonas aeruginosa [3]; strain 20641) | MBC (Pseudomonas aeruginosa [3]; strain 21336)
< 1400 ng/mL: concentration at 1.5 h ([4]; 90 min.)
130 mg/kg: ED50 (Pseudomonas aeruginosa [6]; read-out: PD50 /treatment, P. aeruginosa A9843A, challenge 3 × 10^4, i.m., at 0 and 2 hours) | ED50 (Pseudomonas aeruginosa [6]; read-out: PD50 /treatment, P. aeruginosa A20599, challenge 6 × 10^4, i.m., at 0 and 2 hours)
> 125 µg/mL: MIC (Pseudomonas aeruginosa [1]; strain A15194) | MIC (Pseudomonas aeruginosa [1]; strain A20557) | MIC (Pseudomonas aeruginosa [1]; strain A20717) | MIC (Bacteroides fragilis; strain A27020)
2 µg/mL: MIC (Bacteroides fragilis; strain A20920) | MIC (Bacteroides fragilis; strain A20927-1)
63 µg/mL: MIC (Pseudomonas aeruginosa [1]; strain A9502) | MIC (Pseudomonas aeruginosa [1]; strain A9923) | MIC (Pseudomonas aeruginosa [1]; strain A9924) | MIC (Pseudomonas aeruginosa [1]; strain A9926) | MIC (Pseudomonas aeruginosa [1]; strain A9930) | MIC (Pseudomonas aeruginosa [1]; strain A9931) | MIC (Pseudomonas aeruginosa [1]; strain A15195) | MIC (Pseudomonas aeruginosa [1]; strain A15196) | MIC (Pseudomonas aeruginosa [1]; strain A20125) | MIC (Pseudomonas aeruginosa [1]; strain A20127) | MIC (Pseudomonas aeruginosa [1]; strain A20128) | MIC (Pseudomonas aeruginosa [1]; strain A20129) | MIC (Pseudomonas aeruginosa [1]; strain A20130) | MIC (Pseudomonas aeruginosa [1]; strain A20228) | MIC (Pseudomonas aeruginosa [1]; strain A20546) | MIC (Pseudomonas aeruginosa [1]; strain A20602) | MIC (Pseudomonas aeruginosa [1]; strain A20616) | MIC (Pseudomonas aeruginosa [1]; strain A20641) | MIC (Pseudomonas aeruginosa [1]; strain A20726) | MIC (Pseudomonas aeruginosa [1]; strain A21336) | MBC (Pseudomonas aeruginosa [2]; strain 9843A) | MBC (Pseudomonas aeruginosa [2]; strain 9926) | MBC (Pseudomonas aeruginosa [2]; strain 20126) | MBC (Pseudomonas aeruginosa [2]; strain 20128) | MBC (Pseudomonas aeruginosa [2]; strain 20227) | MBC (Pseudomonas aeruginosa [2]; strain 20228) | MBC (Pseudomonas aeruginosa [2]; strain 20546) | MBC (Pseudomonas aeruginosa [2]; strain 20574) | MBC (Pseudomonas aeruginosa [2]; strain 21336) | MBC (Pseudomonas aeruginosa [3]; strain 20126) | MBC (Pseudomonas aeruginosa [3]; strain 20228) | MIC (Bacteroides fragilis; strain A20930) | MIC (Bacteroides fragilis; strain A21872) | MIC (Bacteroides fragilis; strain A22053)
1000 µg/mL: MBC (Pseudomonas aeruginosa [3]; strain 20717)
18100 ng/mL: Blood Level ([5]; 15 min.)
1 µg/mL: MIC (Cl. septicum)
8100 ng/mL: Blood Level ([5]; 30 min.)
